Test results published in article PMC12366332 (Applied and Environmental Microbiology, 2025).
Square brackets hold non-standard residues; d marks the D form. Ends that are not written are not given here. Peptide text beside a SMILES is read from it. * marks the point of attachment. Butyryl = CCCC(=O)*

How the values were obtained:
E. coli 0111:B4 LPS = type: biochemical, Escherichia coli
tobacco leaves = conditions: 150 µM; after 48 h
[1] = tested on: X. fastidiosa subsp. fastidiosa IVIA 5387.2; conditions: 50 µM
horse erythrocytes = conditions: red cells of horse, 50 µM

Molecule | LPS neutralization Ratio (treatment/NTC) (E. coli 0111:B4 LPS) | Phytotoxicity: diameter of the lesion (tobacco leaves) | Bactericidal activity Level [1] | Bactericidal activity Reduction in viability (Log N0/N) [1] | Hemolytic activity (%) (horse erythrocytes)
CCCC(=O)NCCCC[C@H](NC(=O)[C@H](CCCCN)NC(=O)[C@H](CCCCN)NC(C)=O)C(=O)N[C@H](Cc1ccccc1)C(=O)N[C@@H](CCCCN)C(=O)N[C@@H](CCCCN)C(=O)N[C@@H](CCCCN)C(=O)N[C@@H](CC(C)C)C(=O)N[C@@H](CCCCN)C(=O)N[C@@H](Cc1ccc(O)cc1)C(=O)N[C@@H](CC(C)C)C(N)=O [BP546, Ac-KKK(COC3H7)fKKKLKYL-NH2] (Ac-KKK(Butyryl)[dF]KKKLKYL-NH2) | 0,73 | 0 mm | Low (key: Very High: very high bactericidal activity (>2.5 log); High: high bactericidal activity (between 2.0 and 2.5 log); Moderate: a moderate activity (between 1.5 and 2.0 log); Low: low active (<1.5 log)) | 0,34 Log N0/N | 0%
CCCC(=O)NCCCC[C@@H](NC(=O)[C@H](CC(C)C)NC(=O)[C@H](CCCCN)NC(=O)[C@H](CCCCN)NC(C)=O)C(=O)N[C@@H](CCCCN)C(=O)N[C@@H](CCCCN)C(=O)N[C@H](C(=O)N[C@@H](CC(C)C)C(=O)N[C@H](C(=O)N[C@@H](Cc1ccc(O)cc1)C(=O)N[C@@H](CC(C)C)C(N)=O)[C@@H](C)CC)[C@@H](C)CC [BP547, Ac-KKLk(COC3H7)KKILIYL-NH2] | 0,99 | 2 mm | Low (key: Very High: very high bactericidal activity (>2.5 log); High: high bactericidal activity (between 2.0 and 2.5 log); Moderate: a moderate activity (between 1.5 and 2.0 log); Low: low active (<1.5 log)) | 0,05 Log N0/N | 0%
CCCC(=O)NCCCC[C@H](NC(=O)[C@H](CCCCN)NC(=O)[C@H](CCCCN)NC(=O)[C@@H](Cc1ccccc1)NC(=O)[C@H](CC(C)C)NC(=O)[C@H](CCCCN)NC(=O)[C@H](CCCCN)NC(C)=O)C(=O)N[C@@H](CC(C)C)C(=O)N[C@@H](CCCCN)C(=O)N[C@@H](Cc1ccc(O)cc1)C(=O)N[C@@H](CC(C)C)C(N)=O [BP548, Ac-KKLfKKK(COC3H7)LKYL-NH2] | 0,65 | 6 mm | Low (key: Very High: very high bactericidal activity (>2.5 log); High: high bactericidal activity (between 2.0 and 2.5 log); Moderate: a moderate activity (between 1.5 and 2.0 log); Low: low active (<1.5 log)) | 0,28 Log N0/N | 0%
CCCC(=O)NCCCC[C@H](NC(=O)[C@H](CCCCN)NC(=O)[C@H](CCCCN)NC(C)=O)C(=O)N[C@H](Cc1ccccc1)C(=O)N[C@@H](CCCCN)C(=O)N[C@@H](CCCCN)C(=O)N[C@H](C(=O)N[C@@H](CC(C)C)C(=O)N[C@@H](CCCCN)C(=O)N[C@@H](Cc1ccc(O)cc1)C(=O)N[C@@H](CC(C)C)C(N)=O)[C@@H](C)CC [BP549, Ac-KKK(COC3H7)fKKILKYL-NH2] | 1,10 | 5 mm | Low (key: Very High: very high bactericidal activity (>2.5 log); High: high bactericidal activity (between 2.0 and 2.5 log); Moderate: a moderate activity (between 1.5 and 2.0 log); Low: low active (<1.5 log)) | 1,19 Log N0/N | 1%
CCCC(=O)NCCCC[C@@H](NC(=O)[C@H](CC(C)C)NC(=O)[C@H](CCCCN)NC(=O)[C@H](CCCCN)NC(C)=O)C(=O)N[C@@H](CCCCN)C(=O)N[C@@H](CCCCN)C(=O)N[C@H](C(=O)N[C@@H](CC(C)C)C(=O)N[C@@H](CCCCN)C(=O)N[C@@H](Cc1ccc(O)cc1)C(=O)N[C@@H](CC(C)C)C(N)=O)[C@@H](C)CC [BP550, Ac-KKLk(COC3H7)KKILKYL-NH2] | 1,09 | 5 mm | Low (key: Very High: very high bactericidal activity (>2.5 log); High: high bactericidal activity (between 2.0 and 2.5 log); Moderate: a moderate activity (between 1.5 and 2.0 log); Low: low active (<1.5 log)) | 0,00 Log N0/N | 3%
NIKISGKWKAQKRFLK-NH2 [BPI(84-99), NIKISGKWKAQKRFLK-NH2, reference compound] | 0,29 | 1 mm | Low (key: Very High: very high bactericidal activity (>2.5 log); High: high bactericidal activity (between 2.0 and 2.5 log); Moderate: a moderate activity (between 1.5 and 2.0 log); Low: low active (<1.5 log)) | 0,84 Log N0/N | 7%
RVQGRWKVRASFFK-NH2 [LBP-14, RVQGRWKVRASFFK-NH2, reference compound] | 0,23 | 1 mm | Low (key: Very High: very high bactericidal activity (>2.5 log); High: high bactericidal activity (between 2.0 and 2.5 log); Moderate: a moderate activity (between 1.5 and 2.0 log); Low: low active (<1.5 log)) | 0,51 Log N0/N | 7%
YVKLWRMIKFIR-NH2 [YW12D, YVKLWRMIKFIR-NH2, reference compound] | 0,21 | 1 mm | Low (key: Very High: very high bactericidal activity (>2.5 log); High: high bactericidal activity (between 2.0 and 2.5 log); Moderate: a moderate activity (between 1.5 and 2.0 log); Low: low active (<1.5 log)) | 0,59 Log N0/N | 12%
